Consider 27 molecules from US20080021056A1, “Fused, Tricyclic Sulfonamide Inhibitors of Gamma Secretase” (priority 2006, published 2008).

What is called IC50 is the concentration needed to halve the response being measured.

The structures appear in SMILES notation.

In one assay the target is T1, gamma-secretase (Homo sapiens, UniProt P49768).
T1 construct: partially purified extract of IMR-32 cell membranes as the gamma-secretase enzyme preparation; endogenous in cells; host or cells: IMR-32 cell membranes (partially purified extract)
The assay is described as follows: Gamma-secretase APP enzyme assay. The class given is biochemical. Particulars: cleavage of MBP-C125 Swe substrate at the Aβ40 site; partially purified extract of IMR-32 cell membranes; ELISA. The text has this: The gamma-secretase APP enzyme assay was designed to measure the specific proteolytic cleavage of an APP substrate (MBP-C125 Swe fusion protein) at the Aβ40 site. The assay used a partially purified extract of IMR-32 cell membranes as the gamma-secretase enzyme preparation and a recombinant fusion protein containing the C-terminal 125 amino acids of the Swedish variant of the APP (MBP-C125swe) as the substrate. This assay involved two steps beginning with the enzymatic reaction generating a cleavage product that was captured with an immobilized antibody specific for the neo-epitope Aβ40 site. The captured cleavage product was then detected in a sandwich ELISA assay with a biotinylated reporter antibody that is specific to Aβ (17-28). Streptavidin-linked alkaline phosphatase was then added that would generate a fluorescent signal proportional to the amount of cleavage product. This assay was used to discover small molecule inhibitors of gamma-secretase.
Briefly, a 149 mg/ml solution of BIGCHAP detergent was made with water at 42° C. and then rotated for 30 minutes at the same temperatures This warmed solution of BigCHAPS (N,N-Bis(3-D-gluconamidopropyl)cholamide) detergent was used to dissolve Brain Extract Type-V (lipid containing a minimum of 40% phosphatidylethanolamine) from Signa (St. Louis, Mo.) to a concentration of 8 mg/ml. This solution containing BigCHAPS and lipid at 8 mg/ml is then diluted to 0.53 mg/ml lipid with a pre-warmed solution of Hepes and sodium chloride. This final solution containing Hepes buffer, sodium chloride, BigCHAPS detergent and lipid is used to create working solutions of both gamma-secretase (25 Units) and the MBP-C125 substrate (0.05 mg/ml).
Gamma-secretase was then added to a 96-well micro-titre plate and then incubated with various concentrations of inhibitor for 30 minutes at 37° C. MBPC125 substrate was then added to initiate the reaction that would run for two hours at 37° C. The reaction was quenched with the addition of SDS to a final concentration of 0.1% and then 100 μl of the reaction mixture was transferred to a capture ELISA plate and incubated overnight at 4° C. Detection of the cleavage product was performed using a standard sandwich ELISA assay and quantified using a six point standard curve.
(In general: In an ELISA, binding on a coated surface is turned into a signal by an enzyme label.)
Consider `O=S(=O)(c1ccc(OC(F)F)cc1)N1c2cc(F)c(F)cc2-c2[nH]ncc2[C@H]1C1CC1` [(R)-4-cyclopropyl-5-(4-(difluoromethoxy)phenylsulfonyl)-7,8-difluoro-4,5-dihydro-1H-pyrazolo[4,3-c]quinoline], for which the IC50 lay in the range of 0.0001 to 0.1 µM.

As to `CCC1c2cn[nH]c2-c2ccccc2N1S(=O)(=O)c1ccc(Cl)cc1` (centres unmarked) [5-(4-chlorophenylsulfonyl)-4-ethyl-4,5-dihydro-1H-pyrazolo[4,3-c]quinoline], the IC50 lay within 0.0001 to 0.1 µM.

`O=S(=O)(c1ccc(F)cc1)N1c2ccccc2-c2n[nH]cc2C1C1CC1` (centres unmarked) [4-cyclopropyl-5-(4-fluorophenylsulfonyl)-4,5-dihydro-2H-pyrazolo[4,3-c]quinoline] showed an IC50 of 0.0001 to 0.1 µM.

For `CC1c2c[nH]nc2-c2ccccc2N1S(=O)(=O)c1ccc(Cl)cc1` (racemic) [5-[(4-chlorophenyl)sulfonyl]-4-methyl-4,5-dihydro-2H-pyrazolo[4,3-c]quinoline], the IC50 lay within 0.0001 to 0.1 µM.

In turn, `O=S(=O)(c1ccc(Cl)cc1)N1Cc2c[nH]nc2-c2ccccc21` [5-[(4-chlorophenyl)sulfonyl]-4,5-dihydro-1H-pyrazolo[4,3-c]quinoline] yielded a half-maximal inhibitory concentration (IC50) of 0.0001 to 0.1 µM.

`CCC1c2cn[nH]c2-c2cc(F)c(F)cc2N1S(=O)(=O)c1ccc(C(F)(F)F)cn1` (centres unmarked) [4-ethyl-7,8-difluoro-5-(5-(trifluoromethyl)pyridin-2-ylsulfonyl)-4,5-dihydro-1H-pyrazolo[4,3-c]quinoline] registered an IC50 of 0.0001 to 0.1 µM.

For the molecule `O=S(=O)(c1ccc(C(F)(F)F)cc1)N1c2ccc(F)cc2-c2[nH]ncc2C1C1CC1` (racemic) [4-cyclopropyl-8-fluoro-5-(4-(trifluoromethyl)phenylsulfonyl)-4,5-dihydro-1H-pyrazolo[4,3-c]quinoline], the IC50 lay within 0.0001 to 0.1 µM.

`O=S(=O)(c1ccc(C(F)(F)F)nc1)N1c2ccc(C(F)(F)F)cc2-c2[nH]ncc2[C@H]1C1CC1` [(R)-4-cyclopropyl-8-(trifluoromethyl)-5-(6-(trifluoromethyl)pyridin-3-ylsulfonyl)-4,5-dihydro-1H-pyrazolo[4,3-c]quinoline] showed an IC50 of 0.0001 to 0.1 µM.

Take `CC1c2c[nH]nc2-c2ccc(OC(=O)N(C)C)cc2N1S(=O)(=O)c1ccc(Cl)cc1` (centres unmarked) [5-(4-chlorophenylsulfonyl)-4-methyl-4,5-dihydro-1H-pyrazolo[4,3-c]quinolin-7-yl dimethylcarbamate]: the IC50 is 0.0001 to 0.1 µM.

The molecule `CC1c2c[nH]nc2-c2cc(O)ccc2N1S(=O)(=O)c1ccc(Cl)cc1` (centres unmarked) [5-(4-chlorophenylsulfonyl)-4-methyl-4,5-dihydro-2H-pyrazolo[4,3-c]quinolin-8-ol] yielded an IC50 of 0.0001 to 0.1 µM.

`CC1c2cn[nH]c2-c2ccccc2N1S(=O)(=O)c1cccnc1` (centres unmarked) [4-methyl-5-(pyridin-3-ylsulfonyl)-4,5-dihydro-1H-pyrazolo[4,3-c]quinoline] registered a concentration for half-maximal inhibition (IC50) of 0.101 to 0.5 µM.

Molecule `CC1c2cn[nH]c2-c2ccc(O)cc2N1S(=O)(=O)c1ccc(Cl)cc1` (centres unmarked) [5-(4-chlorophenylsulfonyl)-4-methyl-4,5-dihydro-1H-pyrazolo[4,3-c]quinolin-7-ol] showed an IC50 of 0.0001 to 0.1 µM.

`O=S(=O)(c1cccs1)N1c2cc(F)c(F)cc2-c2n[nH]cc2C1C1CC1` (centres unmarked) [4-cyclopropyl-7,8-difluoro-5-(thiophen-2-ylsulfonyl)-4,5-dihydro-2H-pyrazolo[4,3-c]quinoline] registered an IC50 of 0.0001 to 0.1 µM.

Molecule `CC1c2c[nH]nc2-c2c(F)cccc2N1S(=O)(=O)c1ccc(Cl)cc1` (centres unmarked) [5-(4-chlorophenylsulfonyl)-9-fluoro-4-methyl-4,5-dihydro-2H-pyrazolo[4,3-c]quinoline] gave a 50% inhibitory concentration (IC50) of 0.0001 to 0.1 µM.

`CC(C)C1c2c[nH]nc2-c2cc(F)c(F)cc2N1S(=O)(=O)c1ccc(C(F)(F)F)cc1` (centres unmarked) [7,8-difluoro-4-isopropyl-5-(4-(trifluoromethyl)phenylsulfonyl)-4,5-dihydro-2H-pyrazolo[4,3-c]quinoline] showed a 50% inhibitory concentration (IC50) of 0.0001 to 0.1 µM.

Molecule `O=S(=O)(c1ccc(F)cc1)N1c2cc(F)c(F)cc2-c2n[nH]cc2C1C1CC1` (single isomer, unassigned) [4-cyclopropyl-7,8-difluoro-5-(4-fluorophenylsulfonyl)-4,5-dihydro-2H-pyrazolo[4,3-c]quinoline] registered a 50% inhibitory concentration (IC50) of 0.0001 to 0.1 µM.

Take `O=S(=O)(c1ncc(Cl)s1)N1c2cc(F)c(F)cc2-c2n[nH]cc2C1C1CC1` (centres unmarked) [5-chloro-2-(4-cyclopropyl-7,8-difluoro-1H-pyrazolo[4,3-c]quinolin-5(4H)-ylsulfonyl)thiazole]: the IC50 is 0.0001 to 0.1 µM.

In the case of `O=S(=O)(c1ccc(C(F)(F)F)nc1)N1c2cc(OC(F)(F)F)ccc2-c2n[nH]cc2[C@H]1C1CC1` [(R)-4-cyclopropyl-7-(trifluoromethoxy)-5-(6-(trifluoromethyl)pyridin-3-ylsulfonyl)-4,5-dihydro-2H-pyrazolo[4,3-c]quinoline], the half-maximal inhibitory concentration (IC50) was in the range of 0.0001 to 0.1 µM.

`CC1c2c[nH]nc2-c2cc3c(cc2N1S(=O)(=O)c1ccc(Cl)cc1)OCO3` (centres unmarked) [5-(4-chlorophenylsulfonyl)-4-methyl-4,5-dihydro-2H-[1,3]dioxolo[4,5-g]pyrazolo[4,3-c]quinoline] yielded an IC50 of 0.0001 to 0.1 µM.

`CC1c2c[nH]nc2-c2cc(F)ccc2N1S(=O)(=O)c1ccc(Cl)cc1` (racemic) [5-[(4-chlorophenyl)sulfonyl]-8-fluoro-4-methyl-4,5-dihydro-2H-pyrazolo[4,3-c]quinoline] had an IC50 of 0.0001 to 0.1 µM.

As for `CC1c2cn[nH]c2-c2ncccc2N1S(=O)(=O)c1ccc(Cl)cc1` (centres unmarked) [5-[(4-chlorophenyl)sulfonyl]-4-methyl-4,5-dihydro-1H-pyrazolo[4,3-c]-1,5-naphthyridine], the IC50 is 0.0001 to 0.1 µM.

For `O=c1c2cnn(S(=O)(=O)c3ccc(Cl)cc3)c2c2ccccc2n1S(=O)(=O)c1ccc(Cl)cc1` [1,5-bis(4-chlorophenylsulfonyl)-1H-pyrazolo[4,3-c]quinolin-4(5H)-one], the IC50 fell in the range of 1 to 10 µM.

`Nc1ccc(S(=O)(=O)N2c3cc(F)c(F)cc3-c3[nH]ncc3[C@H]2C2CC2)cc1` [(R)-4-(4-cyclopropyl-7,8-difluoro-1H-pyrazolo[4,3-c]quinolin-5(4H)-ylsulfonyl)aniline] gave an IC50 of 0.0001 to 0.1 µM.

The molecule `O=S(=O)(c1ccc(Cl)cc1)N1Cc2c[nH]nc2-c2c(F)cccc21` [5-[(4-chlorophenyl}sulfonyl]-9-fluoro-4,5-dihydro-2H-pyrazolo[4,3-c]quinoline] registered a half-inhibitory concentration (IC50) of 0.0001 to 0.1 µM.

In turn, `O=S(=O)(c1ccc(OC(F)(F)F)cc1)N1c2cc(F)c(F)cc2-c2[nH]ncc2C1C1CC1` (centres unmarked) [4-cyclopropyl-7,8-difluoro-5-(4-(trifluoromethoxy)phenylsulfonyl)-4,5-dihydro-1H-pyrazolo[4,3-c]quinoline] yielded an IC50 of 0.0001 to 0.1 µM.

Staying with this assay, now noted: cleavage of MBP-C125 Swe substrate at the Aβ40 site; partially purified extract of IMR-32 cell membranes; ELISA; enantiomer A.
`O=S(=O)(c1ccc(C(F)(F)F)nc1)N1c2ccc(F)cc2-c2n[nH]cc2C1C1CC1` (single isomer, unassigned) [4-cyclopropyl-8-fluoro-5-(6-(trifluoromethyl)pyridin-3-ylsulfonyl)-4,5-dihydro-2H-pyrazolo[4,3-c]quinoline]: the half-maximal inhibitory concentration (IC50) was in the range of 0.0001 to 0.1 µM.

In turn, `CC1c2c[nH]nc2-c2cc(F)c(F)cc2N1S(=O)(=O)c1ccc(Cl)cc1` (single isomer, unassigned) [5-(4-chlorophenylsulfonyl)-7,8-difluoro-4-methyl-4,5-dihydro-2H-pyrazolo[4,3-c]quinoline] had an IC50 of 0.0001 to 0.1 µM.

Staying with this assay, now noted: cleavage of MBP-C125 Swe substrate at the Aβ40 site; partially purified extract of IMR-32 cell membranes; ELISA; enantiomer B.
With `O=S(=O)(c1ccc(C(F)(F)F)nc1)N1c2ccc(F)cc2-c2n[nH]cc2C1C1CC1` (single isomer, unassigned) [4-cyclopropyl-8-fluoro-5-(6-(trifluoromethyl)pyridin-3-ylsulfonyl)-4,5-dihydro-2H-pyrazolo[4,3-c]quinoline], the IC50 lay in the range of 0.0001 to 0.1 µM.

Molecule `CC1c2c[nH]nc2-c2cc(F)c(F)cc2N1S(=O)(=O)c1ccc(Cl)cc1` (single isomer, unassigned) [5-(4-chlorophenylsulfonyl)-7,8-difluoro-4-methyl-4,5-dihydro-2H-pyrazolo[4,3-c]quinoline] gave an IC50 of 0.0001 to 0.1 µM.
